Consider ten molecules from patent US20240122212A1 (SUNTORY HOLDINGS LIMITED, priority 2020, published 2024).

Assay [1] can be described thus: Degree of sweetness relative to sucrose. The settings on record: for degree of sweetness, median value: median of the range, sucrose = 1; for degree of sweetness at sweetness intensity of 0.3, times as much as that of sucrose: sweetness intensity 0.3; for degree of sweetness at sweetness intensity of 4.3, times as much as that of sucrose: sweetness intensity 4.3. From the text:
The “sweetness intensity” means an intensity of sweetness of a substance. […] A numerical value obtained by multiplying the degree of sweetness by a concentration Brix value of glucose is the sweetness intensity of glucose in terms of sucrose. Thus, when a concentration of glucose in terms of sucrose is Brix 1.5, the sweetness intensity of glucose is 0.65×1.5=0.975. The sweetness intensity of a sweetener in terms of sucrose can be calculated from a degree of sweetness shown in the following table or a value of a known degree of sweetness.
For example, when the sweetness intensity of sucrose per unit concentration Brix 1 is defined as a degree of sweetness of 1, a degree of sweetness of rebaudioside D is about 200 to 250 (median value 225), a degree of sweetness of rebaudioside M is about 200 to 260 (median value 230), a degree of sweetness of rebaudioside B is about 325, a degree of sweetness of rebaudioside A is about 200 to 300 (median value 250), a degree of sweetness of rebaudioside N is about 200 to 250 (median value 225), a degree of sweetness of rebaudioside O is about 200 to 250 (median value 225), a degree of sweetness of rebaudioside E is about 70 to 80 (median value 75), a degree of sweetness of a Luo han guo extract (containing 40% of Mog V) is about 110 to 150 (median value 130), a degree of sweetness of mogroside V is about 240 to 300 (median value 270), and a degree of sweetness of thaumatin is about 2,000, and a degree of sweetness of brazzein is about 500 to 2,000 (median value 1,250). The numerical value obtained by multiplying these degrees of sweetness by a concentration (w/v % (considered to be the same as w/w % in the case of a beverage)) of the high-intensity sweetener in a fruit juice beverage is a sweetness intensity of the high-intensity sweetener. The relative ratio in degrees of sweetness of various sweeteners to the degree of sweetness of 1 of sucrose can be determined from a known sugar sweetness conversion table, and the like. In the present description, when a degree of sweetness is shown in a numerical value range, the median value may be used. However, a sweetener having different values in a degree of sweetness by literatures, a relative ratio in a degree of sweetness to the degree of sweetness of 1 of sucrose can be defined by a sensory test. Examples of such a sensory test include a method in which samples were prepared by adding sucrose having a sweetness intensity of Brix 3.0 to 5.0 in 0.5 increments to pure water, and of which a sucrose-added sample having a sweetness intensity equal to an aqueous solution of a sweetener in a predetermined concentration is selected.
Additionally, for a sweetener with a variable degree of sweetness as a sweetness intensity increases, degrees of sweetness in different concentrations are actually measured and plotted whereby a degree of sweetness in a predetermined concentration may be calculated from the obtained approximate curve.

A short description of assay [2]: Basic taste quality sensory evaluation by trained panelists, spitting test, against 6% sucrose control (Example 1). It counts as in vivo, human. The settings on record: scale −3 to 3, 0 = no difference from 6% sucrose control; D-allulose 8.57 w/v %, D-arabinose 10 w/v % in pure water; 4 panelists. How it is done:
In each evaluation item, the rating on a scale of −3 point to 3 point was performed, with the case where there is no difference from the control solution being 0. Quicker in sweetness onset, higher sweetness intensity, shorter lingering sweet aftertaste, lower bitterness intensity, and shorter lingering bitter aftertaste compared to the control were rated near 3 points. Slower in sweetness onset, lower sweetness intensity, longer lingering sweet aftertaste, higher bitterness intensity, and longer lingering bitter aftertaste compared to the control were rated near −3 points. That is, the closer to 0 point, the closer to the control. The evaluation was carried out by those (4 persons) who received sensory trainings as panelists by spitting test. The amount of a sweet substance contained in each sample solution was adjusted to be equal to the control solution on the calculation. […] The energy (kcal/100 ml) was calculated from the amount of the sweetener added.

Where [3] appears, read: value used to design the sample solutions.

Regarding `O=C(CO)[C@H](O)[C@H](O)[C@H](O)CO` [D-Allulose], the “degree of sweetness, times as much as that of sucrose” value in assay [1] (setting [3]) was 0.7 times. For the same molecule, in assay [2], the Bitterness intensity is reported as −1 point, the Lingering bitter aftertaste was −0.625 point, the Lingering sweet aftertaste was found to be 0.125 point and the “Quickness in sweetness onset” value is given as 0.125 point. This molecule registered a Sweetness intensity in assay [2] of −0.125 point.

In the case of `O=C[C@H](O)[C@@H](O)[C@H](O)[C@H](O)CO` [Glucose], the “degree of sweetness, median value” in assay [1] is on record as 0.65.

As to `C[C@H](CC[C@@H](O[C@@H]1O[C@H](CO[C@@H]2O[C@H](CO)[C@@H](O)[C@H](O)[C@H]2O)[C@@H](O)[C@H](O)[C@H]1O[C@@H]1O[C@H](CO)[C@@H](O)[C@H](O)[C@H]1O)C(C)(C)O)[C@H]1CC[C@@]2(C)[C@@H]3CC=C4[C@@H](CC[C@H](O[C@@H]5O[C@H](CO[C@@H]6O[C@H](CO)[C@@H](O)[C@H](O)[C@H]6O)[C@@H](O)[C@H](O)[C@H]5O)C4(C)C)[C@]3(C)[C@H](O)C[C@]12C` [mogroside V], the “degree of sweetness, median value” in assay [1] was 270.

With `C=C1C[C@@]23CC[C@H]4[C@@](C)(CCC[C@@]4(C)C(=O)O[C@@H]4O[C@H](CO)[C@@H](O)[C@H](O)[C@H]4O)[C@@H]2CC[C@]1(O[C@@H]1O[C@H](CO)[C@@H](O)[C@H](O[C@@H]2O[C@H](CO)[C@@H](O)[C@H](O)[C@H]2O)[C@H]1O[C@@H]1O[C@H](CO)[C@@H](O)[C@H](O)[C@H]1O)C3` [rebaudioside A], the “degree of sweetness, median value” in assay [1] is given as 250. Further, in assay [1] (setting [3]), the “degree of sweetness at sweetness intensity of 0.3, times as much as that of sucrose” value came out at 100 times and the “degree of sweetness at sweetness intensity of 4.3, times as much as that of sucrose” value is 190.5 times.

On to `C=C1C[C@@]23CC[C@H]4[C@@](C)(CCC[C@@]4(C)C(=O)O[C@@H]4O[C@H](CO)[C@@H](O)[C@H](O)[C@H]4O[C@@H]4O[C@H](CO)[C@@H](O)[C@H](O)[C@H]4O)[C@@H]2CC[C@]1(O[C@@H]1O[C@H](CO)[C@@H](O)[C@H](O[C@@H]2O[C@H](CO)[C@@H](O)[C@H](O)[C@H]2O)[C@H]1O[C@@H]1O[C@H](CO)[C@@H](O)[C@H](O)[C@H]1O)C3` [rebaudioside D], for which the “degree of sweetness, median value” in assay [1] was 225. In assay [1] (setting [3]), the “degree of sweetness at sweetness intensity of 0.3, times as much as that of sucrose” value was 100 times and the “degree of sweetness at sweetness intensity of 4.3, times as much as that of sucrose” value is recorded as 190.5 times.

In the case of `C=C1C[C@@]23CC[C@H]4[C@@](C)(CCC[C@@]4(C)C(=O)O[C@@H]4O[C@H](CO)[C@@H](O)[C@H](O)[C@H]4O[C@@H]4O[C@H](CO)[C@@H](O)[C@H](O)[C@H]4O)[C@@H]2CC[C@]1(O[C@@H]1O[C@H](CO)[C@@H](O)[C@H](O)[C@H]1O[C@@H]1O[C@H](CO)[C@@H](O)[C@H](O)[C@H]1O)C3` [rebaudioside E], the “degree of sweetness, median value” in assay [1] is reported as 75.

For the molecule `C=C1C[C@@]23CC[C@H]4[C@@](C)(CCC[C@@]4(C)C(=O)O[C@@H]4O[C@H](CO)[C@@H](O)[C@H](O[C@@H]5O[C@H](CO)[C@@H](O)[C@H](O)[C@H]5O)[C@H]4O[C@@H]4O[C@H](CO)[C@@H](O)[C@H](O)[C@H]4O)[C@@H]2CC[C@]1(O[C@@H]1O[C@H](CO)[C@@H](O)[C@H](O[C@@H]2O[C@H](CO)[C@@H](O)[C@H](O)[C@H]2O)[C@H]1O[C@@H]1O[C@H](CO)[C@@H](O)[C@H](O)[C@H]1O)C3` [rebaudioside M], the “degree of sweetness, median value” in assay [1] worked out at 230. Besides, in assay [1] (setting [3]), the “degree of sweetness at sweetness intensity of 0.3, times as much as that of sucrose” value amounted to 100 times and the “degree of sweetness at sweetness intensity of 4.3, times as much as that of sucrose” value came to 190.5 times.

On to `C=C1C[C@@]23CC[C@H]4[C@@](C)(CCC[C@@]4(C)C(=O)O[C@@H]4O[C@H](CO)[C@@H](O)[C@H](O[C@@H]5O[C@H](CO)[C@@H](O)[C@H](O)[C@H]5O)[C@H]4O[C@@H]4O[C@@H](C)[C@H](O)[C@@H](O)[C@H]4O)[C@@H]2CC[C@]1(O[C@@H]1O[C@H](CO)[C@@H](O)[C@H](O[C@@H]2O[C@H](CO)[C@@H](O)[C@H](O)[C@H]2O)[C@H]1O[C@@H]1O[C@H](CO)[C@@H](O)[C@H](O)[C@H]1O)C3` [rebaudioside N], for which the “degree of sweetness, median value” in assay [1] worked out at 225.

For the molecule `C=C1C[C@@]23CC[C@H]4[C@@](C)(CCC[C@@]4(C)C(=O)O[C@@H]4O[C@H](CO)[C@@H](O)[C@H](O[C@@H]5O[C@H](CO)[C@@H](O)[C@H](O)[C@H]5O)[C@H]4O[C@@H]4O[C@@H](C)[C@H](O)[C@@H](O[C@@H]5O[C@H](CO)[C@@H](O)[C@H](O)[C@H]5O)[C@H]4O)[C@@H]2CC[C@]1(O[C@@H]1O[C@H](CO)[C@@H](O)[C@H](O[C@@H]2O[C@H](CO)[C@@H](O)[C@H](O)[C@H]2O)[C@H]1O[C@@H]1O[C@H](CO)[C@@H](O)[C@H](O)[C@H]1O)C3` [rebaudioside O], the “degree of sweetness, median value” in assay [1] turned out to be 225.

For the molecule “brazzein: sweet protein of Pentadiplandra brazzeana (QDKCKKVYENYPVSKCQLANQCNYDCKLDKHARSGECFYDEKRNLQCICDYCEY; UniProt P56552 1-54, looked up)”, the “degree of sweetness, median value” in assay [1] is 1,250.
